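Assay format: 96-well plates, 48-hour exposure. GI50 = concentration required for 50% inhibition of growth. TGI: concentration producing complete growth inhibition.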
Assays:
Test in all cases: NCI tumour cell line growth inhibition, 48 h
MCF7 breast = test system: MCF7 breast
NCI-H460 lung = test system: NCI-H460 lung
OVCAR-3 ovarian = test system: OVCAR-3 ovarian
HCT-116 colon = test system: HCT-116 colon
NCI-H522 lung = test system: NCI-H522 lung
OVCAR-5 ovarian = test system: OVCAR-5 ovarian
SW-620 colon = test system: SW-620 colon
U251 CNS = test system: U251 CNS
UACC-257 melanoma = test system: UACC-257 melanoma
SF-295 CNS = test system: SF-295 CNS
UO-31 renal = test system: UO-31 renal
T-47D breast = test system: T-47D breast
HOP-62 NSCLC = test system: HOP-62 NSCLC
HCT-15 colon = test system: HCT-15 colon
HL-60(TB) leukemia = test system: HL-60(TB) leukemia
RPMI-8226 leukemia = test system: RPMI-8226 leukemia
HOP-92 NSCLC = test system: HOP-92 NSCLC
MOLT-4 leukemia = test system: MOLT-4 leukemia
MDA-MB-231 breast = test system: MDA-MB-231 breast
NCI-H226 lung = test system: NCI-H226 lung
DU-145 prostate = test system: DU-145 prostate
BT-549 breast = test system: BT-549 breast
TK-10 renal = test system: TK-10 renal
RXF 393 renal = test system: RXF 393 renal
LOX IMVI melanoma = test system: LOX IMVI melanoma
M14 melanoma = test system: M14 melanoma
MALME-3M melanoma = test system: MALME-3M melanoma
UACC-62 melanoma = test system: UACC-62 melanoma
SK-MEL-2 melanoma = test system: SK-MEL-2 melanoma
PC-3 prostate = test system: PC-3 prostate
SN12C renal = test system: SN12C renal
OVCAR-4 ovarian = test system: OVCAR-4 ovarian
IGROV1 ovarian = test system: IGROV1 ovarian
SK-OV-3 ovarian = test system: SK-OV-3 ovarian
KM12 colon = test system: KM12 colon
NCI/ADR-RES ovarian = test system: NCI/ADR-RES ovarian
786-0 renal = test system: 786-0 renal
A549 NSCLC = test system: A549 NSCLC
CCRF-CEM leukemia = test system: CCRF-CEM leukemia
SF-268 CNS = test system: SF-268 CNS
MDA-MB-435 = test system: MDA-MB-435
A498 renal = test system: A498 renal
CAKI-1 renal = test system: CAKI-1 renal
HCC-2998 colon = test system: HCC-2998 colon
EKVX NSCLC = test system: EKVX NSCLC
SF-539 CNS = test system: SF-539 CNS
K-562 leukemia = test system: K-562 leukemia
HT29 colon = test system: HT29 colon
SK-MEL-5 melanoma = test system: SK-MEL-5 melanoma
NCI-H23 lung = test system: NCI-H23 lung
SR leukemia = test system: SR leukemia
SNB-75 CNS = test system: SNB-75 CNS
OVCAR-8 ovarian = test system: OVCAR-8 ovarian
ACHN renal = test system: ACHN renal

C[C@]12CCC3c4ccc(O)cc4CCC3C1CC[C@@]2(O)C#Cc1ccc(C#C/C=C\C#Cc2ccccc2N)cc1 (stereo partly drawn)
GI50 (MCF7 breast): 0.308 µM
TGI (MCF7 breast): > 100 µM
GI50 (NCI-H460 lung): 12.6 µM
TGI (NCI-H460 lung): > 100 µM
GI50 (OVCAR-3 ovarian): 13.8 µM
TGI (OVCAR-3 ovarian): 48 µM
GI50 (HCT-116 colon): 12.3 µM
TGI (HCT-116 colon): > 100 µM
GI50 (NCI-H522 lung): 17 µM
TGI (NCI-H522 lung): > 100 µM
GI50 (OVCAR-5 ovarian): 38.4 µM
TGI (OVCAR-5 ovarian): > 100 µM
GI50 (SW-620 colon): 40 µM
TGI (SW-620 colon): > 100 µM
GI50 (U251 CNS): 19 µM
TGI (U251 CNS): 80.4 µM
GI50 (UACC-257 melanoma): 28.7 µM
TGI (UACC-257 melanoma): > 100 µM
GI50 (SF-295 CNS): 17.1 µM
TGI (SF-295 CNS): > 100 µM
GI50 (UO-31 renal): 15.9 µM
TGI (UO-31 renal): 85.1 µM
GI50 (T-47D breast): > 100 µM
TGI (T-47D breast): > 100 µM
GI50 (HOP-62 NSCLC): 28.7 µM
TGI (HOP-62 NSCLC): 70 µM
GI50 (HCT-15 colon): 22.2 µM
TGI (HCT-15 colon): > 100 µM
GI50 (HL-60(TB) leukemia): 26.7 µM
TGI (HL-60(TB) leukemia): > 100 µM
GI50 (RPMI-8226 leukemia): 7.56 µM
TGI (RPMI-8226 leukemia): 79.7 µM
GI50 (HOP-92 NSCLC): 16 µM
TGI (HOP-92 NSCLC): 46.5 µM
GI50 (MOLT-4 leukemia): 57.5 µM
TGI (MOLT-4 leukemia): > 100 µM
GI50 (MDA-MB-231 breast): 21 µM
TGI (MDA-MB-231 breast): 53.5 µM
GI50 (NCI-H226 lung): 20.2 µM
TGI (NCI-H226 lung): 48.2 µM
GI50 (DU-145 prostate): 23.9 µM
TGI (DU-145 prostate): > 100 µM
GI50 (BT-549 breast): 19.2 µM
TGI (BT-549 breast): 45.1 µM
GI50 (TK-10 renal): 36.6 µM
TGI (TK-10 renal): > 100 µM
GI50 (RXF 393 renal): 36.3 µM
TGI (RXF 393 renal): > 100 µM
GI50 (LOX IMVI melanoma): 35.8 µM
TGI (LOX IMVI melanoma): > 100 µM
GI50 (M14 melanoma): 29.5 µM
TGI (M14 melanoma): > 100 µM
GI50 (MALME-3M melanoma): 17.2 µM
TGI (MALME-3M melanoma): 48.1 µM
GI50 (UACC-62 melanoma): 15.2 µM
TGI (UACC-62 melanoma): 41.2 µM
GI50 (SK-MEL-2 melanoma): 42.2 µM
TGI (SK-MEL-2 melanoma): > 100 µM
GI50 (PC-3 prostate): 15.6 µM
TGI (PC-3 prostate): 55.3 µM
GI50 (SN12C renal): 21.7 µM
TGI (SN12C renal): 61.1 µM
GI50 (OVCAR-4 ovarian): 23.6 µM
TGI (OVCAR-4 ovarian): > 100 µM
GI50 (IGROV1 ovarian): 87.1 µM
TGI (IGROV1 ovarian): > 100 µM
GI50 (SK-OV-3 ovarian): 39.7 µM
TGI (SK-OV-3 ovarian): > 100 µM
GI50 (KM12 colon): 9.66 µM
TGI (KM12 colon): > 100 µM
GI50 (NCI/ADR-RES ovarian): 17.7 µM
TGI (NCI/ADR-RES ovarian): 52.2 µM
GI50 (786-0 renal): 20.5 µM
TGI (786-0 renal): 57.5 µM
GI50 (A549 NSCLC): 32.9 µM
TGI (A549 NSCLC): > 100 µM
GI50 (CCRF-CEM leukemia): > 100 µM
TGI (CCRF-CEM leukemia): > 100 µM
GI50 (SF-268 CNS): 24.8 µM
TGI (SF-268 CNS): > 100 µM
GI50 (MDA-MB-435): 31.7 µM
TGI (MDA-MB-435): > 100 µM
GI50 (A498 renal): 21.7 µM
TGI (A498 renal): 41 µM
GI50 (CAKI-1 renal): 20.6 µM
TGI (CAKI-1 renal): 68.6 µM
GI50 (HCC-2998 colon): 25.6 µM
TGI (HCC-2998 colon): 54.5 µM
GI50 (EKVX NSCLC): 20.3 µM
TGI (EKVX NSCLC): 65.5 µM
GI50 (SF-539 CNS): 21.3 µM
TGI (SF-539 CNS): 52.6 µM
GI50 (K-562 leukemia): 12.4 µM
TGI (K-562 leukemia): 86.5 µM
GI50 (HT29 colon): 25.8 µM
TGI (HT29 colon): > 100 µM
GI50 (SK-MEL-5 melanoma): 17.9 µM
TGI (SK-MEL-5 melanoma): 41 µM
GI50 (NCI-H23 lung): 26.5 µM
TGI (NCI-H23 lung): > 100 µM
GI50 (SR leukemia): > 100 µM
TGI (SR leukemia): > 100 µM
GI50 (SNB-75 CNS): > 100 µM
TGI (SNB-75 CNS): > 100 µM
GI50 (OVCAR-8 ovarian): 47.4 µM
TGI (OVCAR-8 ovarian): > 100 µM
GI50 (ACHN renal): 17.8 µM
TGI (ACHN renal): 43.6 µM

From PubChem BioAssay (NCI)
